These compounds were tested against T1, full length AKT E17K (Homo sapiens, UniProt P31749, E17K) (assay: NanoBRET Target Engagement (TE) Intracellular Kinase Assay). Settings: not given.
T1 construct: host or cells: HEK-293 (ATCC CRL-1573)
Type: cell-based
How it was run: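 Live-cell BRET assay: cells expressing NanoLuc-fused full-length AKT E17K incubated 2 h with tracer at target-optimized concentration plus compound. BRET read at 450 nm donor/600 nm acceptor with extracellular NanoLuc inhibitor. EC50 from sigmoidal variable-slope fit of tracer displacement.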

T1 sequence (P31749 whole entry E17K): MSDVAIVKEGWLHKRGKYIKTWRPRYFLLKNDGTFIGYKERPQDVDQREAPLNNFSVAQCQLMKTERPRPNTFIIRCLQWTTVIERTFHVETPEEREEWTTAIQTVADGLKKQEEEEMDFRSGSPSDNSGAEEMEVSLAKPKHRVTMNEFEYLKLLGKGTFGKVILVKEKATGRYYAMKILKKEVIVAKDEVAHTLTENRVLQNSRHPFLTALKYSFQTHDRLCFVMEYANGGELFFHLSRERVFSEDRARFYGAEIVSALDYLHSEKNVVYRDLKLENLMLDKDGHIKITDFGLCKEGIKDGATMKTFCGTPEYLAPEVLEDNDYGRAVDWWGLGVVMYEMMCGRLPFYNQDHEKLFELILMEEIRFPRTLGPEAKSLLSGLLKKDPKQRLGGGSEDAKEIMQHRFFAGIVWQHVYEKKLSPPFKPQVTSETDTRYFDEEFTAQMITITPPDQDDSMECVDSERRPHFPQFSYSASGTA

EC50 [µM]	Compound
> 0.6	COc1c(N2CCN(Cc3ccc(-n4c(-c5cccnc5N)nc5cccnc54)cc3)CC2)c(=O)c1=O [Example 1, 3-(4-(4-(2-(2-Aminopyridin-3-yl)-3H-imidazo[4,5-b]pyridin-3-yl)benzyl)piperazin-1-yl)-4-methoxycyclobut-3-ene-1,2-dione]
0.015 to 0.06	COc1c(N2CCC3(CCN(Cc4ccc(-n5c(-c6cccnc6N)nc6ccc(-c7ccccc7)nc65)cc4)C3)CC2)c(=O)c1=O [Example 57, 3-(2-(4-(2-(2-Aminopyridin-3-yl)-5-phenyl-3H-imidazo[4,5-b]pyridin-3-yl)benzyl)-2,8-diazaspiro[4.5]decan-8-yl)-4-methoxycyclobut-3-ene-1,2-dione]
0.06 to 0.6	COc1c(Nc2cccc(C(=O)NCc3ccc(-n4c(-c5cccnc5N)nc5ccc(-c6ccccc6)nc54)cc3)c2)c(=O)c1=O [Example 33, N-(4-(2-(2-aminopyridin-3-yl)-5-phenyl-3H-imidazo[4,5-b]pyridin-3-yl)benzyl)-3-((2-methoxy-3,4-dioxocyclobut-1-en-1-yl)amino)benzamide]
> 0.6	Nc1ncccc1-c1nc2ccc(-c3ccccc3)nc2n1-c1ccc(CN2CCC(N3CCCOc4c3c(=O)c4=O)CC2)cc1 [Example 84, 6-(1-(4-(2-(2-aminopyridin-3-yl)-5-phenyl-3H-imidazo[4,5-b]pyridin-3-yl)benzyl)piperidin-4-yl)-2-oxa-6-azabicyclo[5.2.0]non-1(7)-ene-8,9-dione]
0.06 to 0.6	COc1c(N2[C@@H](C)CN(Cc3ccc(-n4c(-c5cccnc5N)nc5ccc(-c6ccccc6)nc54)cc3)C[C@@H]2C)c(=O)c1=O [Example 70, 3-((2S,6S)-4-(4-(2-(2-aminopyridin-3-yl)-5-phenyl-3H-imidazo[4,5-b]pyridin-3-yl)benzyl)-2,6-dimethylpiperazin-1-yl)-4-methoxycyclobut-3-ene-1,2-dione]
0.06 to 0.6	Nc1ncccc1-c1nc2ccc(-c3ccccc3)nc2n1-c1ccc(CN2CCC(Nc3c(OC4CCCC4)c(=S)c3=O)CC2)cc1 [Example 15, 2-((1-(4-(2-(2-Aminopyridin-3-yl)-5-phenyl-3H-imidazo[4,5-b]pyridin-3-yl)benzyl)piperidin-4-yl)amino)-3-(cyclopentyloxy)-4-thioxocyclobut-2-en-1-one]
0.015 to 0.06	COc1c(N2CCN(Cc3ccc(-n4c(-c5cccnc5N)nc5ccc(-c6ccccc6)nc54)cc3)C[C@@H]2C)c(=O)c1=O [Example 36, (S)-3-(4-(4-(2-(2-Aminopyridin-3-yl)-5-phenyl-3H-imidazo[4,5-b]pyridin-3-yl)benzyl)-2-methylpiperazin-1-yl)-4-methoxycyclobut-3-ene-1,2-dione]
0.06 to 0.6	COc1c(N2[C@H](C)CN(Cc3ccc(-n4c(-c5cccnc5N)nc5ccc(-c6ccccc6)nc54)cc3)C[C@H]2C)c(=O)c1=O [Example 69, 3-((2R,6R)-4-(4-(2-(2-aminopyridin-3-yl)-5-phenyl-3H-imidazo[4,5-b]pyridin-3-yl)benzyl)-2,6-dimethylpiperazin-1-yl)-4-methoxycyclobut-3-ene-1,2-dione]
0.015 to 0.06	COc1c(N[C@@H]2CCN(Cc3ccc(-n4c(-c5cccnc5N)nc5ccc(-c6ccccc6)nc54)cc3)C2)c(=O)c1=O [Example 50, (R)-3-((1-(4-(2-(2-Aminopyridin-3-yl)-5-phenyl-3H-imidazo[4,5-b]pyridin-3-yl)benzyl)pyrrolidin-3-yl)amino)-4-methoxycyclobut-3-ene-1,2-dione]
> 0.6	CN(c1c(S)c(=O)c1=O)C1CCN(Cc2ccc(-n3c(-c4cccnc4N)nc4ccc(-c5ccccc5)nc43)cc2)CC1 [Example 46, 3-((1-(4-(2-(2-aminopyridin-3-yl)-5-phenyl-3H-imidazo[4,5-b]pyridin-3-yl)benzyl)piperidin-4-yl)(methyl)amino)-4-mercaptocyclobut-3-ene-1,2-dione]
0.015 to 0.06	COc1c(N2CCC3(CN(Cc4ccc(-n5c(-c6cccnc6N)nc6ccc(-c7ccccc7)nc65)cc4)C3)C2)c(=O)c1=O [Example 42, 3-(2-(4-(2-(2-Aminopyridin-3-yl)-5-phenyl-3H-imidazo[4,5-b]pyridin-3-yl)benzyl)-2,6-diazaspiro[3.4]octan-6-yl)-4-methoxycyclobut-3-ene-1,2-dione]
> 0.6	COc1c(N2CC3(CN(Cc4ccc(-n5c(-c6cccnc6N)nc6ccc(-c7ccccc7)nc65)cc4)C3)C2)c(=O)c1=O [Example 41, 3-(6-(4-(2-(2-Aminopyridin-3-yl)-5-phenyl-3H-imidazo[4,5-b]pyridin-3-yl)benzyl)-2,6-diazaspiro[3.3]heptan-2-yl)-4-methoxycyclobut-3-ene-1,2-dione]
0.015 to 0.06	CCSc1c(N(CC)C2CCN(Cc3ccc(-n4c(-c5cccnc5N)nc5ccc(-c6ccccc6)nc54)cc3)CC2)c(=O)c1=O [Example 93, 3-((1-(4-(2-(2-aminopyridin-3-yl)-5-phenyl-3H-imidazo[4,5-b]pyridin-3-yl)benzyl)piperidin-4-yl)(ethyl)amino)-4-(ethylthio)cyclobut-3-ene-1,2-dione]
0.015 to 0.06	COc1c(N2CCN(Cc3ccc(-n4c(-c5cccnc5N)nc5ccc(-c6ccccc6)nc54)cc3)CC2)c(=O)c1=O [Example 21, 3-(4-(4-(2-(2-Aminopyridin-3-yl)-5-phenyl-3H-imidazo[4,5-b]pyridin-3-yl)benzyl)piperazin-1-yl)-4-methoxycyclobut-3-ene-1,2-dione]
> 0.6	Nc1ncccc1-c1nc2ccc(-c3ccccc3)nc2n1-c1ccc(CNC(=O)c2cccc(Nc3c(O)c(=O)c3=O)c2)cc1 [Example 43, N-(4-(2-(2-Aminopyridin-3-yl)-5-phenyl-3H-imidazo[4,5-b]pyridin-3-yl)benzyl)-3-((2-hydroxy-3,4-dioxocyclobut-1-en-1-yl)amino)benzamide]
0.015 to 0.06	CCOc1c(NC2CCN(Cc3ccc(-n4c(-c5cccnc5N)nc5ccc(-c6ccccc6)nc54)cc3)CC2)c(=O)c1=O [Example 12, 3-((1-(4-(2-(2-Aminopyridin-3-yl)-5-phenyl-3H-imidazo[4,5-b]pyridin-3-yl)benzyl)piperidin-4-yl)amino)-4-ethoxycyclobut-3-ene-1,2-dione]
0.015 to 0.06	CCOc1c(N2CCC3(CC2)CN(Cc2ccc(-n4c(-c5cccnc5N)nc5ccc(-c6ccccc6)nc54)cc2)C3)c(=O)c1=O [Example 59, 3-(2-(4-(2-(2-Aminopyridin-3-yl)-5-phenyl-3H-imidazo[4,5-b]pyridin-3-yl)benzyl)-2,7-diazaspiro[3.5]nonan-7-yl)-4-ethoxycyclobut-3-ene-1,2-dione]
0.015 to 0.06	COc1c(NC2CCC3(CC2)CCN(Cc2ccc(-n4c(-c5cccnc5N)nc5ccc(-c6ccccc6)nc54)cc2)C3)c(=O)c1=O (centres unmarked) [Example 52, 3-((2-(4-(2-(2-Aminopyridin-3-yl)-5-phenyl-3H-imidazo[4,5-b]pyridin-3-yl)benzyl)-2-azaspiro[4.5]decan-8-yl)amino)-4-methoxycyclobut-3-ene-1,2-dione]

Same assay, conditions: read-out: NanoBRET AKT1E17K EC50; HEK-293 cells transfected with NanoLuc-AKT E17K; competitive displacement of NanoBRET tracer; 2 hr equilibration; 10-point 3-fold dilution

EC50 [µM]	Compound
< 0.015	CCSc1c(N(C)C2CCN(Cc3ccc(-n4c(-c5cccnc5N)nc5ccc(-c6ccccc6)nc54)cc3)CC2)c(=O)c1=O [Example 49, 3-((1-(4-(2-(2-Aminopyridin-3-yl)-5-phenyl-3H-imidazo[4,5-b]pyridin-3-yl)benzyl)piperidin-4-yl)(methyl)amino)-4-(ethylthio)cyclobut-3-ene-1,2-dione]
< 0.015	CSc1c(N2C[C@H]3CN(Cc4ccc(-n5c(-c6cccnc6N)nc6ccc(-c7ccccc7)nc65)cc4)C[C@H]3C2)c(=O)c1=O [Example 87, 3-((3aR,6aS)-5-(4-(2-(2-aminopyridin-3-yl)-5-phenyl-3H-imidazo[4,5-b]pyridin-3-yl)benzyl)hexahydropyrrolo[3,4-c]pyrrol-2(1H)-yl)-4-(methylthio)cyclobut-3-ene-1,2-dione]
< 0.015	COc1c(N[C@@H]2CCCN(Cc3ccc(-n4c(-c5cccnc5N)nc5ccc(-c6ccccc6)nc54)cc3)C2)c(=O)c1=O [Example 34, (R)-3-((1-(4-(2-(2-aminopyridin-3-yl)-5-phenyl-3H-imidazo[4,5-b]pyridin-3-yl)benzyl)piperidin-3-yl)amino)-4-methoxycyclobut-3-ene-1,2-dione]
< 0.015	COc1c(NC2CCC3(CC2)CN(Cc2ccc(-n4c(-c5cccnc5N)nc5ccc(-c6ccccc6)nc54)cc2)C3)c(=O)c1=O [Example 98, 3-((2-(4-(2-(2-aminopyridin-3-yl)-5-phenyl-3H-imidazo[4,5-b]pyridin-3-yl)benzyl)-2-azaspiro[3.5]nonan-7-yl)amino)-4-methoxycyclobut-3-ene-1,2-dione]
< 0.015	COc1c(N2CC3CCC2CN3Cc2ccc(-n3c(-c4cccnc4N)nc4ccc(-c5ccccc5)nc43)cc2)c(=O)c1=O (centres unmarked) [Example 63, 3-(5-(4-(2-(2-aminopyridin-3-yl)-5-phenyl-3H-imidazo[4,5-b]pyridin-3-yl)benzyl)-2,5-diazabicyclo[2.2.2]octan-2-yl)-4-methoxycyclobut-3-ene-1,2-dione]
< 0.015	COc1c(N2CCCN(Cc3ccc(-n4c(-c5cccnc5N)nc5ccc(-c6ccccc6)nc54)cc3)CC2)c(=O)c1=O [Example 38, 3-(4-(4-(2-(2-Aminopyridin-3-yl)-5-phenyl-3H-imidazo[4,5-b]pyridin-3-yl)benzyl)-1,4-diazepan-1-yl)-4-methoxycyclobut-3-ene-1,2-dione]
< 0.015	CSc1c(N2CCC3(CC2)CN(Cc2ccc(-n4c(-c5cccnc5N)nc5ccc(-c6ccccc6)nc54)cc2)C3)c(=O)c1=O [Example 64, 3-(2-(4-(2-(2-aminopyridin-3-yl)-5-phenyl-3H-imidazo[4,5-b]pyridin-3-yl)benzyl)-2,7-diazaspiro[3.5]nonan-7-yl)-4-(methylthio)cyclobut-3-ene-1,2-dione]
< 0.015	CSc1c(N(C)C2CCN(Cc3ccc(-n4c(-c5cccnc5N)nc5ccc(-c6ccccc6)nc54)cc3)CC2)c(=O)c1=O [Example 47, 3-((1-(4-(2-(2-aminopyridin-3-yl)-5-phenyl-3H-imidazo[4,5-b]pyridin-3-yl)benzyl)piperidin-4-yl)(methyl)amino)-4-(methylthio)cyclobut-3-ene-1,2-dione]
